Experiments:
[1] = test system: HNRNPR; assay: Quantitative multiplexed proteomics (TMT LC-MS3); format: cell-based, human; settings: 250 nM, 60 min, MELK−/− MDA-MB-468-FKBP12^F36V-MELK cells
Procedure: (§1) MELK−/− MDA-MB-468-FKBP12^F36V-MELK cells were treated in duplicates with DMSO for 30 minutes or 60 minutes, or in triplicates with dTAG-7 (250 nM) for 30 minutes or 60 minutes. Cells were washed with ice-cold PBS once, collected by scraping and centrifugation, and lysed in 1 mL of lysis buffer (8 M urea, 1% SDS, 50 mM Tris pH8.5 supplemented with protease and phosphatase inhibitors). A micro-BCA assay (Pierce) was used to determine the protein concentration of each sample. A total of 1200 µg of proteins from each sample was depleted of abundant proteins using two Pierce Top 12 protein depletion spin columns. Eluted proteins were combined, and protein concentration was determined by micro-BCA. Proteins were precipitated on ice for 1 hour with 13% trichloroacetic acid (TCA), washed twice with acetone, and pellets were allowed to air dry. Proteins were resuspended in 6 M urea, 50 mM Tris pH 8.5, reduced with 5 mM dithiothreitol (DTT) at room temperature for 1 hour, and alkylated with 15 mM iodoacetamide in the dark at room temperature for 1 hour. Alkylation was quenched with DTT. Urea concentration was reduced to 4 M and proteins were digested with LysC (1:50; enzyme:protein) for 6 hours at 25°C. The LysC digestion was diluted to 1 M urea, 50 mM Tris pH 8.5 and then digested with trypsin (1:100; enzyme:protein) overnight at 37°C. […] Peptide quantification was performed using the micro-BCA assay (Pierce). […]
(§2) 12 of the 24 peptide fractions from the basic reverse phase fractionation (every other fraction) were analyzed with an LC-MS3 data collection strategy ([McAlister et al., 2014]) on an Orbitrap Fusion mass spectrometer (Thermo Fisher Scientific) equipped with a Proxeon Easy nLC 1000 for online sample handling and peptide separations. […]
(§3) A suite of in-house software tools were used to for. RAW file processing and controlling peptide and protein level false discovery rates, assembling proteins from peptides, and protein quantification from peptides as previously described. […]

[2] = test system: MKL1; assay: Quantitative multiplexed proteomics (TMT LC-MS3); format: cell-based, human; settings: 250 nM, 60 min, MELK−/− MDA-MB-468-FKBP12^F36V-MELK cells
Procedure: as §1, §2, §3

[3] = test system: EEA1; assay: Quantitative multiplexed proteomics (TMT LC-MS3); format: cell-based, human; settings: 250 nM, 60 min, MELK−/− MDA-MB-468-FKBP12^F36V-MELK cells
Procedure: as §1, §2, §3

[4] = target: T1, MELK (Homo sapiens, UniProt P62942+Q14680); assay: Quantitative multiplexed proteomics (TMT LC-MS3); format: cell-based; settings: 250 nM, 60 min, MELK−/− MDA-MB-468-FKBP12^F36V-MELK cells
T1 construct: expressed in transfected cells; host or cells: MDA-MB-468 (lentiviral transduction, endogenous MELK knocked out)
Procedure: MELK−/− MDA-MB-468-FKBP12^F36V-MELK cells were treated in duplicates with DMSO for 30 minutes or 60 minutes, or in triplicates with dTAG-7 (250 nM) for 30 minutes or 60 minutes. Cells were washed with ice-cold PBS once, collected by scraping and centrifugation, and lysed in 1 mL of lysis buffer (8 M urea, 1% SDS, 50 mM Tris pH8.5 supplemented with protease and phosphatase inhibitors). A micro-BCA assay (Pierce) was used to determine the protein concentration of each sample. A total of 1200 µg of proteins from each sample was depleted of abundant proteins using two Pierce Top 12 protein depletion spin columns. Eluted proteins were combined, and protein concentration was determined by micro-BCA. […] Peptide quantification was performed using the micro-BCA assay (Pierce). […]
as §2, §3

[5] = test system: FKBP12^F36V-MELK(sg3R); assay: dTAG-induced degradation, immunoblot; format: cell-based; settings: MELK−/− MDA-MB-468-FKBP12^F36V-MELK(sg3R) cells
Procedure: Four dTAG molecules (7, 13, 36 and 47) that vary in linker length and chemical structure were tested for their efficiency at depleting FKBP12^F36V-MELK(sg3R) (Figure 4A, Figure 4—figure supplement 3).
Figure 4. […] (A) Chemical structure of heterobifunctional dTAG molecule dTAG-47. See also Figure 4—figure supplement 3 for the chemical structures of dTAG-7, dTAG-13 and dTAG-36. (B) Immunoblots for MELK and GAPDH after treatment of dTAG-7, 13, 36, and 47 at indicated concentrations in MELK−/− MDA-MB-468-FKBP12^F36V-MELK(sg3R) cells for 4 hours. See Figure 4—figure supplement 1 for details of the generation of MELK−/− MDA-MB-468-FKBP12^F36V-MELK(sg3R) clones. (C) Same as in 4B, but with treatment at 500 nM and extended treatment times for 14, 24, 48, and 72 hours. (D) Changes in abundance of 7270 proteins (peptide count ≥2) comparing MELK−/− MDA-MB-468-FKBP12^F36V-MELK cells treated with dTAG-7 (250 nM) or DMSO for 1 hour, versus p-value (dTAG-7: triplicate, DMSO: duplicate, limma moderated t-test). See also Figure 4—source datas 1 and 2 for the original and the processed data. (E) Crystal violet staining image showing parental MDA-MB-468 cells and MELK−/− MDA-MB-468-FKBP12^F36V-MELK(sg3R) cells after treatment with DMSO or 500 nM of dTAG-47 for 9 days. Immunoblots showing MELK and GAPDH from a duplicate plate on Day 9 confirmed sustained depletion of FKBP12^F36V-MELK(sg3R). These are representative data from one of two independent experiments. Figure 4—source data 1. Raw integrated ion intensities from quantitative multiplexed proteomics. Figure 4—source data 2. Processed Data and Statistical Analysis by limma (topTable). Figure 4—figure supplement 1. Single clones selected from MDA-MB-468-FKBP12^F36V-MELK(sg3R) cells subject to CRISPR/Cas9-mediated knockout of endogenous MELK. Immunoblots for MELK and GAPDH in single cell clones selected from MDA-MB-468-FKBP12^F36V-MELK(sg3R) transfected with Cas9/sgMELK-3 to knockout endogenous MELK. Clone 1D4 is clone 1 and clone 1A3 is clone 2 in Figure 4. Clone 1D4 was confirmed with heterozygous −1 and +1 indels; clone 1A3 was confirmed with homozygous −1 deletions. [drawing 5] Figure 4—figure supplement 2. […] (A) Immunoblots for MELK, cyclin B1 and GAPDH in asynchronous versus M-phase arrested MDA-MB-468 cells and MDA-MB-468-FKBP12^F36V-MELK(sg3R) cells (clone 1). […] Chemical structures of dTAG molecules. FKBP12^F36V-binding ligands conjugated by variable linkers to thalidomide or pomalidomide, including (A) dTAG-7, (B) dTAG-13 and (C) dTAG-36 are capable of inducing degradation of FKBP12^F36V-tagged proteins of interest. [drawing 7]

T1 sequence (P62942+Q14680 fused P62942:F37V): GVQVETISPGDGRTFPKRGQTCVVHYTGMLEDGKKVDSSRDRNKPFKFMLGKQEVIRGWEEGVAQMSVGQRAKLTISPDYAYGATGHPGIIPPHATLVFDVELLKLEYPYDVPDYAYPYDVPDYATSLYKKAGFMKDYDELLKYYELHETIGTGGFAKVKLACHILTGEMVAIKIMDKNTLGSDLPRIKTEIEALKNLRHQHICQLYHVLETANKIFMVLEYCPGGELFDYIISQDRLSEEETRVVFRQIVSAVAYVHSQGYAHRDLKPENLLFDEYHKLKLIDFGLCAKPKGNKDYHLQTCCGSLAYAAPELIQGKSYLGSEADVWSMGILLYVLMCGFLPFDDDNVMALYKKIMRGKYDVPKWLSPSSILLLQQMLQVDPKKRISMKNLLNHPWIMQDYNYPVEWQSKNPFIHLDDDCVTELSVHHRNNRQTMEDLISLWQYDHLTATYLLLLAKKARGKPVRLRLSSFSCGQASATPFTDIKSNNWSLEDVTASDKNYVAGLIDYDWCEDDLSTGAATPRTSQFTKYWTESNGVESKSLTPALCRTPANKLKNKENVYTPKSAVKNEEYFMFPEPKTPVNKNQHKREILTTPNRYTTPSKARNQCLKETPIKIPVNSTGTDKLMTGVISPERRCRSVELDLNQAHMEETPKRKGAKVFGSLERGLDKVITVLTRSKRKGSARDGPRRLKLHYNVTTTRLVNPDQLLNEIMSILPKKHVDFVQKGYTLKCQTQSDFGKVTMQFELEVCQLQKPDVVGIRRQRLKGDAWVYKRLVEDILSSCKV
T1 sequence (Q96SW2 whole entry partner): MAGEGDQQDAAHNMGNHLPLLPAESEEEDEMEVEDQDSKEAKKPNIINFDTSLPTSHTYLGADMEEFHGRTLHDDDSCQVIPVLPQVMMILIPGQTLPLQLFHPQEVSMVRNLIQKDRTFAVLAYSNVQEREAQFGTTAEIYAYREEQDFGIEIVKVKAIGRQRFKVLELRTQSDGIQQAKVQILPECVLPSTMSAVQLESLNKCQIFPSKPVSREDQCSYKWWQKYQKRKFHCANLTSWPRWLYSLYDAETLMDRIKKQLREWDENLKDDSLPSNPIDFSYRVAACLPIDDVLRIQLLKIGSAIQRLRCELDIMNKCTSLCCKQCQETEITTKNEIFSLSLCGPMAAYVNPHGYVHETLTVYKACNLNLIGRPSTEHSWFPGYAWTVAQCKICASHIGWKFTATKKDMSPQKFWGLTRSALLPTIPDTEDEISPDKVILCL
T1 sequence (Q16531 2-1140 partner limits assumed): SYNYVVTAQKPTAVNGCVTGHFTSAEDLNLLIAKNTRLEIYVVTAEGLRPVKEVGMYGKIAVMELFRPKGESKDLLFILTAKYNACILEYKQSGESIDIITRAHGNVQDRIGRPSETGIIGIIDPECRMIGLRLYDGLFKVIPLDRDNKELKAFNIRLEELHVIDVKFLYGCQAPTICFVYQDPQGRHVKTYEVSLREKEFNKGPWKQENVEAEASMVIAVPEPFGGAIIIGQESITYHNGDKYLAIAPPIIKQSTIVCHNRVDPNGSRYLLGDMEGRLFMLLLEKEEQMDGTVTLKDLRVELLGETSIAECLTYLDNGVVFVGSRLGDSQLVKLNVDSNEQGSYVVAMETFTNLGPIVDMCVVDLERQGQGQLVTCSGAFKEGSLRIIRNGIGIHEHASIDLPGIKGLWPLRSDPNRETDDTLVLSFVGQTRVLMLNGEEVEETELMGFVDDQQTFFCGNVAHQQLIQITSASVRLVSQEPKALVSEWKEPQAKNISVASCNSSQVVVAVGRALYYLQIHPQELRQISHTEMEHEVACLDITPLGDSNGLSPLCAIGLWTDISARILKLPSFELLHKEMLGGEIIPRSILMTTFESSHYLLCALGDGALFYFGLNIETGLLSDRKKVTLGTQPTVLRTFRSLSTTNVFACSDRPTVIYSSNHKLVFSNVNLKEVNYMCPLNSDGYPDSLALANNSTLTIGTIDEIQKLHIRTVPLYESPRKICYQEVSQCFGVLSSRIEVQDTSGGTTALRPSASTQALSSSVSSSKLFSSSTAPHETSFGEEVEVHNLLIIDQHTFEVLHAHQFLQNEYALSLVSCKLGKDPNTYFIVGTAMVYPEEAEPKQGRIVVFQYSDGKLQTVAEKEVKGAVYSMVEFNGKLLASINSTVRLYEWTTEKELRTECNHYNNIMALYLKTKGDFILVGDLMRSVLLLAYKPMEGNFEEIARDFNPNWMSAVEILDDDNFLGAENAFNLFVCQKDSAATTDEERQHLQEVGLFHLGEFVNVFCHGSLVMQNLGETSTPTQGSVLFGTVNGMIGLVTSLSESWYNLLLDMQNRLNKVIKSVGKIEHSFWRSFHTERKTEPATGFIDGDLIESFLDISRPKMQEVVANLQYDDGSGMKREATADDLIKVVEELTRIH

SMILES: CCC(C(=O)N1CCCCC1C(=O)OC(CCc1ccc(OC)c(OC)c1)c1ccccc1OCC(=O)NCCCOCCOCCOCCCNC(=O)COc1cccc2c1C(=O)N(C1CCC(=O)NC1=O)C2=O)c1cc(OC)c(OC)c(OC)c1 (centres unmarked) [dTAG-7]
- logFC (log2 fold change of dTAG-7 to DMSO) HNRNPR [1]: 0.28
- logFC (log2 fold change of dTAG-7 to DMSO) MKL1 [2]: -0.2984
- logFC (log2 fold change of dTAG-7 to DMSO) EEA1 [3]: -0.08592
- logFC (log2 fold change of dTAG-7 to DMSO) MELK [4]: -0.8583
- time to efficient depletion of FKBP12^F36V-MELK(sg3R) [5]: ≤ 4 h

Source: paper PMC5605198, “MELK is not necessary for the proliferation of basal-like breast cancer cells” (eLife, 2017)
